Data as given in patent publication US8242087B2, “Phosphate modified nucleosides useful as substrates for polymerases and as antiviral agents” (priority 2007, dated 2012).

Legend:
[1] = biological target: T1, HIV reverse transcriptase (HIV RT) (Human immunodeficiency virus type 1 group M subtype B, UniProt P03366); assay: Single nucleotide incorporation by HIV RT, gel-based, P1/T1 (Examples 2-3); format: biochemical, HIV-1; conditions: single nucleotide incorporation, FIG. 4
T1 construct: HIV RT polymerase was purchased from GE Healthcare; purchased GE Healthcare (Amersham Bioscience)
Description: A typical single nucleotide incorporation and primer extension assays using HIV RT polymerase was carried out similar to one described in the literature. HIV RT polymerase was purchased from GE Healthcare and was supplied as either 12 or 30 U/μL stock solution. The final concentration of HIV RT in a reaction mixture was 0.03-0.003 U/μL. A primer/template duplex mixture was prepared by combining appropriate amounts of a 5′-^33P-labeled primer (P1) and a template in 1:2 molar ratio to provide a 4× solution with 0.5 μM primer concentration. The polymerase reactions were carried out in a 5×RT buffer containing 250 mM TRIS.HCL, 250 mM KCl, 50 mM MgCl2, 2.5 mM spermidine, 50 mM DTT, pH 8.3. For the single nucleotide incorporation assay, a P1/T1 primer-template pair was used whereas the primer extension study was performed with P1/T3 and P1/T5 primer-template pairs.
Briefly, a mixture containing 5 μL of the 4× primer/DNA duplex solution and 5 μL of 4× polymerase solution was pre-incubated at 37° C. for 2 minutes to ensure formation a DNA polymerase/DNA duplex complex. Simultaneously, 2× solutions of dNTP to provide final concentrations of 100 μM, 200 μM, 500 μM and 1 mM were also pre-incubated at 37° C. for 2 minutes as well. The polymerase reaction in a total volume of 20 μL was initiated by addition of 10 μL of the 2× dNTP solution to the DNA polymerase/DNA duplex mixture. The reactions were run at 37° C. and aliquots (2.5 μL) were removed at specified time points and mixed with 10 μL of a quenching buffer containing 80% formamide, 2 mM EDTA, 1×TBE. Quenched reactions were analyzed by loading 2 μL of a reaction sample onto a 20% denaturing polyacrylamide:gel (19:1 acrylamide:bisacrylamide, 7M urea, 0.4 mm×30 cm×40 cm) made in 1×TBE buffer (90 mM Tris-borate, 2 mM EDTA, pH 8.3). The gel was pre-equilibrated for 2 hours before loading and the reactions were run along with a tracking dye marker containing bromophenol blue (BB) and xylene cyanol (XC) until the BB dye had run ⅔ of the total gel length. For visualization, gels were scanned using a Cyclone Phosphoroimager.

[2] = biological target: T2, HIV reverse transcriptase (Human immunodeficiency virus type 1 group M subtype B, UniProt P03366); assay: Gel-based single-nucleotide-incorporation and control assays with HIV RT (Example 4); format: biochemical, HIV-1; conditions: for conversion to a n+1 strand: 60 min, 500 μM nucleotide concentration, P1T2 (9), P1T4 (10), P2T4 (11); for control experiment with a mismatch sequence: A against A P1T4 (12), G against A P1T4 (9), T against C P1T2 (10), C against T P1T1 (11); for incorporation with blunt ended duplex: primer P1, template A
T2 construct: performed for the enzyme HIV reverse transcriptase (GE Healthcare, 30 U/4 stock solution); purchased GE Healthcare
Description: End-labeled primers were annealed to their template by combining primer and templates in a molar ratio of 1:2 and heating the mixture to 70° C. for 10 minutes, followed by slow cooling to room temperature over a period of 2.5 hours. For the incorporation of L-Asp-dGMP (9), L-Asp-dTMP (10), L-Asp-dCMP (11), and N-Me-Asp-dAMP (12) (see FIG. 13), the primer P1 was annealed to templates T1, T2, T4 or A and P2 was annealed to T4. A series of 20 μL reactions was performed for the enzyme HIV reverse transcriptase (GE Healthcare, 30 U/4 stock solution). The final mixture contained 125 nM primer-template complex, RT buffer (250 mM TrisHCl, 250 mM KCl, 50 mM MgCl2, 2.5 mM spermidine, 50 mM DTT, pH 8.3), 0.03 U/μL HIV RT and different amino acid phosphoramidates building blocks concentrations. In the control reaction with the natural nucleotide, 10 μM or 50 μM dGTP, dTTP, dATP or dCTP were used. The mixture was incubated at 37° C. […] and aliquots were quenched after 5, 10, 20, 30, 60 and 120 minutes respectively.
(§1) All polymerase reactions (3 μL) were quenched by the addition of 10 μL of loading buffer (90% formamide, 0.05% bromophenol blue, 0.05% xylene cyanol and 50 mM EDTA). Samples were heated at 70° C. for 5 minutes prior to analysis by electrophoresis for 2-3 hours at 2000 V on a 0.4 mm 20% denaturing gel in the presence of a 100 mM Tris-borate, 2.5 mM EDTA buffer, pH 8.3. Products were visualized by phosphor imaging. The amount of radioactivity in the bands corresponding to the products of enzymatic reactions was determined by using the Optiquant image analysis software (Perkin Elmer).

[3] = biological target: T2, HIV reverse transcriptase; assay: Steady-state kinetic assay of Asp-dNMP incorporation by HIV RT (Example 4); format: biochemical, HIV-1; conditions: 37° C.; P1-T2, P1-T4 or P2T4
Description: To determine the kinetic parameters of the incorporation of Asp-dGMP (9), Asp-dTMP (10), Asp-dCMP (11) or dGTP, dTTP, dCTP, a steady-state kinetic assay was carried out. The reaction mixture was started by adding HIV reverse transcriptase to P1-T2, P1-T4 or P2T4 complex, buffer and Asp-dGMP, Asp-dTMP, Asp-dCMP or dGTP, dTTP, dCTP. The final mixture (20 μL) contained 0.015 or 0.0075 U/μL HIV reverse transcriptase, buffer, 125 nM primer-template complex and various concentrations of Asp-dNMP or dNTP. A concentration range of 0.01-1 mM was used for Asp-dNPM and a concentration range of 0.1-10 μM was used for dNTP. Reactions were incubated at 37° C. Reaction times were between 1 and 120 minutes. The kinetic constants Vmax and KM were determined from a Michaëlis-Menten plot, using GraphPad Prism version 3.02.
as §1

[4] = biological target: T2, HIV reverse transcriptase; assay: Gel-based single-nucleotide-incorporation and control assays with HIV RT (Example 4); format: biochemical, HIV-1; conditions: P1/T2, compound 9 alone
[5] = biological target: T3, HIV-1 Reverse Transcriptase (Human immunodeficiency virus type 1 group M subtype B, UniProt P03366); assay: Single incorporation into P1T1 by HIV-1 Reverse Transcriptase (Examples 6, 7, 9); format: biochemical; conditions: 2 hours, 1 mM concentration
T3 construct: performed with the enzyme HIV-1 RT (Ambion, 10 U/μL stock solution); purchased Ambion
Description: HIV-1 Reverse Transcriptase serves, in the HIV-1 viral replication process, as a catalyst and uses deoxynucleotides as substrates. This polymerase is error-prone and thus has a high mutation rate. Here, we evaluated the capacity to incorporate a deoxyadenosine nucleoside into the primer-template complex P1T1 using HIV-1 RT, and some of the above described illustrative compounds of the invention, carrying different leaving groups, as substrates. The initial screening was carried out using a template with an overhang of one thymidine nucleotide followed by three non-pyrimidine bases (Table 1). Incorporation efficiency was analysed by the polyacrylamide gel-based single nucleotide incorporation assay.
End-labeled primer was annealed to its template by combining primer and template in a molar ratio of 1:2 and heating the mixture to 70° C. for 10 minutes followed by slow cooling to room temperature over a period of 1.5 hour. For the incorporation of 1, 2, 3, 4, 5 and 6, a series of 20 μL-batch reactions was performed with the enzyme HIV-1 RT (Ambion, 10 U/μL stock solution, specific activity 8.095 U/mg, concentration 1.2 mg/mL). The final mixture contained 125 nM primer template complex, RT buffer (250 mM Tris.HCl, 250 mM KCl, 50 mM MgCl2, 2.5 mM spermidine, 50 mM dithiothreitol (DTT); pH 8.3), 0.025 U/μL HIV-1 RT, and different concentrations of phosphoramidate or phosphodiester building blocks (1 mM, 500 μM, 200 μM and 100 μM respectively). In the case of the aromatic phosphate-modified nucleosides 23 and 24, the range of concentrations was limited to 1 mM. In the control reaction with the natural nucleotide, a 10 μM dATP concentration was used. The mixture was incubated at 37° C. and 2.5 μL aliquots were quenched after 5, 10, 20, 30, 60 and 120 minutes.

HIV RT = biological target: T4, HIV RT (Human immunodeficiency virus type 1 group M subtype B, UniProt P03366); assay: Steady state kinetics of single nucleotide incorporation by HIV RT (P1/T1); format: biochemical, HIV-1; conditions: P1/T1, 37° C.
T4 construct: HIV RT polymerase was purchased from GE Healthcare; purchased GE Healthcare (Amersham Bioscience)
Description: The steady steate kinetics of a single nucleotide incorporation of an amino acid phosphoramidate (AA-dAMP) and of a natural nucleoside triphosphate (dATP) was determined by the gel-based polymerase assay. In all the experiments, the template T1 and the primer P1 were used (Table 1). The primer and template in 1:2 molar ratio were hybridized in a buffer containing 20 mM TRIS.HCl, 10 mM KCl, 2 mM MgSO4, 0.1% Triton X-100, pH 8.8 and used in an amount to provide 125 nM concentration of the primer in each 12 μL reaction. The range of concentrations for amino acid phosphoramidates was optimized according to a Km value for the incorporation of an individual nucleotide. In the case of HIV RT (Amersham Bioscience (GE Healthcare), 30 U/μL), reaction mixtures containing the enzyme in concentration to attain 5-20% conversion and appropriate substrate concentration (nucleoside phosphoramidate or natural dNTP) were incubated at 37° C. and run for 8-10 different time intervals. Kinetic analysis of single nucleotide incorporation by Therminator DNA polymerase (NEB, 2 U/μL) was performed similarly except the incubations and polymerase reactions, which were carried out at 70° C. To prevent solvent condensation/evaporation, the reaction mixtures were topped with mineral oil. The reactions were quenched by addition of the buffer containing 80% formamide, 2 mM EDTA, 1×TBE buffer. The analysis of polymerase reactions was performed by polyacrylamide gel electrophoresis (20% (19:1 mono:bis), 7M urea, 30 cm×40 cm×0.4 mm). The relative band intensities were measured using OptiQuant software. The rates of incorporation (V) were calculated based on the percentage of the extension production (n+1 band). The kinetic parameters (Vmax and Km) were determined by plotting V (pmol/min·U) versus substrate concentration and fitting the data point to a rectangular hyperbola using GraphPad Prism software.

| Compound | conversion to a n+1 strand [2] [%] | control experiment with a mismatch sequence [2] | incorporation with blunt ended duplex [2] | Km [3] [µM] | Vmax [3] [pmolmin^−1U] | also measured |
| --- | --- | --- | --- | --- | --- | --- |
| CC(NP(=O)(O)OC[C@H]1O[C@@H](n2cnc3c(N)ncnc32)C[C@@H]1O)C(=O)O (stereo partly drawn) [Compound 4, 2′-deoxy-adenosine-5′-alanyl-phosphoramidate] | – | – | – | – | – | fold reduction in primer extension [1]: 7 fold |
| Nc1nc2c(ncn2[C@H]2C[C@H](O)[C@@H](COP(=O)(O)N[C@@H](CC(=O)O)C(=O)O)O2)c(=O)[nH]1 [Compound 9, 2′-Deoxyguanosine-5′-aspartyl phosphoramidate] | 92 | primer elongation was not observed | none of these compounds incorporated at all | 169 ± 27.9 | 2.143 ± 0.13 | n+1 conversion (incorporation) ([4]; 4 hours (same as at 2 hours)): 95%; misincorporation ([4]; four hours): no misincorporation was observed |
| Cc1cn([C@H]2C[C@H](O)[C@@H](COP(=O)(O)N[C@@H](CC(=O)O)C(=O)O)O2)c(=O)[nH]c1=O [Compound 10, 2′-Deoxythymidine-5′-aspartyl phosphoramidate] | 95 | primer elongation was not observed | none of these compounds incorporated at all | 288 ± 61.7 | 2.33 ± 0.22 | – |
| Nc1ccn([C@H]2C[C@H](O)[C@@H](COP(=O)(O)N[C@@H](CC(=O)O)C(=O)O)O2)c(=O)n1 [Compound 11, 2′-Deoxycytidine-5′-aspartyl phosphoramidate] | 82 | primer elongation was not observed | none of these compounds incorporated at all | 131 ± 19.8 | 0.59 ± 0.04 | – |
| CN(C(CC(=O)O)C(=O)O)P(=O)(O)OC[C@H]1O[C@@H](n2cnc3c(N)ncnc32)C[C@@H]1O (stereo partly drawn) [Compound 12, 2′-Deoxyadenosine-5′-N-methylaspartyl phosphoramidate] | – | misincorporated against adenine | – | – | – | base-pairing selectivity of incorporation ([2]; P1/T1): without base-pairing selectivity; substrate quality for HIV-RT ([2]; P1/T1): good substrate |
| Nc1ncnc2c1ncn2[C@H]1C[C@H](O)[C@@H](COP(=O)(O)Oc2cc(C(=O)O)cc(C(=O)O)c2)O1 [Compound 22, 2′-deoxyadenosine-5′-(5-hydroxy-isophthalic acid) phosphodiester] | – | – | – | – | – | conversion to an n+1 strand [5]: 90-92% |
| Nc1ncnc2c1ncn2[C@H]1C[C@H](O)[C@@H](COP(=O)(O)OP(=O)(O)OP(=O)(O)O)O1 [dATP, reference compound] | – | – | – | – | – | Km (HIV RT): 0.46 ± 0.15 µM; Vmax (HIV RT): 8.39 ± 0.82 pmol/min · U |
| Nc1ccn([C@H]2C[C@H](O)[C@@H](COP(=O)(O)OP(=O)(O)OP(=O)(O)O)O2)c(=O)n1 [dCTP, reference compound] | – | – | – | 3.74 ± 0.95 | 5.62 ± 0.80 | – |
| Nc1nc2c(ncn2[C@H]2C[C@H](O)[C@@H](COP(=O)(O)OP(=O)(O)OP(=O)(O)O)O2)c(=O)[nH]1 [dGTP, reference compound] | – | – | – | 0.54 ± 1.55 | 28.81 ± 1.55 | – |
| Cc1cn([C@H]2C[C@H](O)[C@@H](COP(=O)(O)OP(=O)(O)OP(=O)(O)O)O2)c(=O)[nH]c1=O [dTTP, reference compound] | – | – | – | 0.53 ± 0.07 | 30.82 ± 1.44 | – |
